Experimental data reported in PubChem BioAssay AID248 (DTP/NCI, 2004).
Where “and” joins values, the source holds several entries; their conditions need not be identical. Equal entries are not always repeated. Inconclusive results and toxic doses are left out. Rule as the data show it: active = T/C of 150% or more; inactive = T/C below 125%.

Test system: L1210 leukemia ip in BDF1 mice, survival T/C
Assay: NCI In Vivo Anticancer Drug Screen. Data for tumor model L1210 Leukemia (intraperitoneal) in B6D2F1 (BDF1) mice
Details: endpoint: mean survival time, higher = longer survival
Method in brief: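 Mice bearing the transplanted tumor received compound or vehicle. Survival of the treated group was divided by that of the vehicle-treated control group to give the ratio.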

[1] = dose: 75.0 mg/kg/injection, schedule: Q01DX001 (ip), vehicle: other
[2] = dose: 150.0 mg/kg/injection, schedule: Q01DX001 (ip), vehicle: other
[3] = dose: 100.0 mg/kg/injection, schedule: Q01DX009 (ip), vehicle: Klucel (hydroxypropylcellulose) (HPC)
[4] = dose: 100.0 mg/kg/injection, schedule: Q04DX003 (ip), vehicle: Klucel (hydroxypropylcellulose) (HPC)
[5] = dose: 200.0 mg/kg/injection, schedule: Q01DX009 (ip), vehicle: Klucel (hydroxypropylcellulose) (HPC)
[6] = dose: 200.0 mg/kg/injection, schedule: Q04DX003 (ip), vehicle: Klucel (hydroxypropylcellulose) (HPC)
[7] = dose: 400.0 mg/kg/injection, schedule: Q04DX003 (ip), vehicle: Klucel (hydroxypropylcellulose) (HPC)
[8] = dose: 100.0 mg/kg/injection, schedule: Q01DX009 (ip), vehicle: saline with Tween-80
[9] = dose: 200.0 mg/kg/injection, schedule: Q01DX009 (ip), vehicle: saline with Tween-80
[10] = dose: 400.0 mg/kg/injection, schedule: Q01DX009 (ip), vehicle: saline with Tween-80
[11] = dose: 100.0 mg/kg/injection, schedule: Q01DX001 (ip), vehicle: saline
[12] = dose: 200.0 mg/kg/injection, schedule: Q01DX001 (ip), vehicle: saline
[13] = dose: 100.0 mg/kg/injection, schedule: Q04DX002 (ip), vehicle: saline with Tween-80
[14] = dose: 200.0 mg/kg/injection, schedule: Q04DX002 (ip), vehicle: saline with Tween-80
[15] = dose: 400.0 mg/kg/injection, schedule: Q01DX001 (ip), vehicle: saline
[16] = dose: 12.5 mg/kg/injection, schedule: Q04DX003 (ip), vehicle: saline
[17] = dose: 25.0 mg/kg/injection, schedule: Q04DX003 (ip), vehicle: saline
[18] = dose: 50.0 mg/kg/injection, schedule: Q01DX001 (ip), vehicle: carboxymethylcellulose (CMC)
[19] = dose: 100.0 mg/kg/injection, schedule: Q01DX001 (ip), vehicle: carboxymethylcellulose (CMC)
[20] = dose: 400.0 mg/kg/injection, schedule: Q01DX001 (ip), vehicle: carboxymethylcellulose (CMC)

Measured: T/C

CCCCC(CC)CNCCOC(=O)c1ccc(N)cc1 (centres undefined)
inactive: [1] 92 % of control | [2] 100 % of control

CC1C(=O)CCC2(C)CCCCC12 (centres undefined)
inactive: [1] 103 % of control | [2] 101 % of control | dose: 300.0 mg/kg/injection, schedule: Q01DX001 (ip), vehicle: other 103 % of control

ClCc1c(Cl)c(Cl)c(Cl)c(CCl)c1Cl
inactive: [3] 98 % of control | [4] 96 % of control | [5] 96 % of control | [6] 98 % of control | [7] 102 % of control

CCCCCCCCCCCCCCCCCc1nc2nc(Cl)c(Cl)nc2[nH]1
inactive: dose: 50.0 mg/kg/injection, schedule: Q01DX009 (ip), vehicle: saline with Tween-80 91 % of control | [8] 91 % of control | dose: 100.0 mg/kg/injection, schedule: Q04DX003 (ip), vehicle: saline with Tween-80 98 % of control and 89 % of control | [9] 91 % of control | dose: 200.0 mg/kg/injection, schedule: Q04DX003 (ip), vehicle: saline with Tween-80 96 % of control | [10] 93 % of control | dose: 400.0 mg/kg/injection, schedule: Q04DX003 (ip), vehicle: saline with Tween-80 94 % of control and 90 % of control

O=C(Nc1ccccc1)OC/C=C\c1ccccc1
inactive: dose: 200.0 mg/kg/injection, schedule: Q04DX002 (ip), vehicle: Klucel (hydroxypropylcellulose) (HPC) 90 % of control | dose: 400.0 mg/kg/injection, schedule: Q04DX002 (ip), vehicle: Klucel (hydroxypropylcellulose) (HPC) 93 % of control

CCCCCCCCCCOc1ccc(/C=N\N=C\c2ccc(OCCCCCCCCCC)cc2)cc1
inactive: [8] 88 % of control | [9] 97 % of control | [10] 95 % of control

CCOC(=O)CCC(NC(=O)c1c(Cl)cc(N(C)S(=O)(=O)c2ccc(C)cc2)cc1Cl)C(=O)OCC (centres undefined)
inactive: [4] 105 % of control | [6] 97 % of control | [7] 97 % of control

CN(C)C(C#N)C(=O)c1ccc(Cl)cc1 (centres undefined)
inactive: [11] 91 % of control | [12] 95 % of control

O=S(=O)(c1ccc(N=NN2CCOCC2)cc1)N(CCCl)CCCl
inactive: [13] 108 % of control | [14] 115 % of control | dose: 400.0 mg/kg/injection, schedule: Q04DX002 (ip), vehicle: saline with Tween-80 115 % of control

Cn1c(=O)cc(CC(=O)O)c2ccccc21
inactive: dose: 100.0 mg/kg/injection, schedule: Q01DX001 (ip), vehicle: other 95 % of control | dose: 200.0 mg/kg/injection, schedule: Q01DX001 (ip), vehicle: other 95 % of control | dose: 400.0 mg/kg/injection, schedule: Q01DX001 (ip), vehicle: other 98 % of control

N#CC(C#N)=C1CCCc2sccc21
inactive: [11] 90 % of control | [12] 95 % of control | [15] 92 % of control

O=C1C2CCC1C(N1CCCC1)CC2 (centres undefined)
inactive: dose: 75.0 mg/kg/injection, schedule: Q01DX001 (ip), vehicle: saline 101 % of control | dose: 150.0 mg/kg/injection, schedule: Q01DX001 (ip), vehicle: saline 104 % of control

O=[N+]([O-])c1ccc2scc3c4ccccc4nc-3c2c1
inactive: dose: 4.37 mg/kg/injection, schedule: Q01DX009 (ip), vehicle: Klucel (hydroxypropylcellulose) (HPC) 95 % of control | dose: 8.75 mg/kg/injection, schedule: Q01DX009 (ip), vehicle: Klucel (hydroxypropylcellulose) (HPC) 101 % of control | [16] 101 % of control | dose: 17.5 mg/kg/injection, schedule: Q01DX009 (ip), vehicle: Klucel (hydroxypropylcellulose) (HPC) 89 % of control | [17] 101 % of control

O=C(O)c1ccc(CCl)cc1
inactive: [13] 108 % of control | [14] 105 % of control

COC(=O)CC1=C(C)CCc2cc3c(cc21)sc1ccccc13
inactive: [11] 94 % of control | [12] 94 % of control | [15] 101 % of control

CN=C(N)NCCCCCCCCNC(N)=NC
inactive: dose: 5.0 mg/kg/injection, schedule: Q01DX001 (ip), vehicle: saline 95 % of control | dose: 10.0 mg/kg/injection, schedule: Q01DX001 (ip), vehicle: saline 101 % of control | dose: 20.0 mg/kg/injection, schedule: Q01DX001 (ip), vehicle: saline 101 % of control

CCSC(SCC)C(O)C(O)C(O)C(O)CO (centres undefined)
inactive: [3] 101 % of control and 98 % of control | [4] 101 % of control and 92 % of control | dose: 100.0 mg/kg/injection, schedule: Q04DX003 (ip), vehicle: saline 101 % of control | [5] 106 % of control and 97 % of control | [6] 101 % of control and 95 % of control | dose: 200.0 mg/kg/injection, schedule: Q04DX003 (ip), vehicle: saline 93 % of control | dose: 400.0 mg/kg/injection, schedule: Q01DX009 (ip), vehicle: Klucel (hydroxypropylcellulose) (HPC) 114 % of control and 97 % of control | [7] 101 % of control and 92 % of control | dose: 400.0 mg/kg/injection, schedule: Q04DX003 (ip), vehicle: saline 92 % of control

COc1ccc(OC)c(NC(=O)Nc2cc(OC)ccc2OC)c1
inactive: [8] 106 % of control | [9] 97 % of control | [10] 94 % of control

CC1C[N+](C)=C(c2ccc(O)cc2)S1 (centres undefined)
inactive: dose: 50.0 mg/kg/injection, schedule: Q01DX001 (ip), vehicle: saline with Tween-80 103 % of control | dose: 100.0 mg/kg/injection, schedule: Q01DX001 (ip), vehicle: saline with Tween-80 107 % of control

O=S(=O)(O)OC1CCCC1S(=O)(=O)O (centres undefined)
inactive: [18] 96 % of control | [19] 107 % of control | dose: 200.0 mg/kg/injection, schedule: Q01DX001 (ip), vehicle: carboxymethylcellulose (CMC) 107 % of control | [20] 86 % of control

O=C1C(Br)=C(N2CC2)C(=O)C(Br)=C1N1CC1
inactive: dose: 1.56 mg/kg/injection, schedule: Q04DX003 (ip), vehicle: saline 104 % of control | dose: 3.12 mg/kg/injection, schedule: Q04DX003 (ip), vehicle: saline 109 % of control | dose: 6.25 mg/kg/injection, schedule: Q04DX003 (ip), vehicle: saline 104 % of control | [16] 106 % of control | [17] 104 % of control | dose: 50.0 mg/kg/injection, schedule: Q04DX003 (ip), vehicle: saline 103 % of control

NC(=O)C1(Nc2ccc(-c3ccc(Br)cc3)cc2)CCCC1
inactive: [18] 95 % of control | [19] 86 % of control | [20] 86 % of control

CC1(C)OC(=O)C(C(=O)O)C1c1ccccc1 (centres undefined)
inactive: [11] 97 % of control | [12] 94 % of control

O=C(Nc1cccc(Cl)c1)Oc1ccc(Cl)cc1Cl
inactive: [13] 96 % of control | [14] 100 % of control

NC(=O)c1c([N+](=O)[O-])ncn1C1OC(CO)C(O)C1O (centres undefined)
inactive: [11] 98 % of control | [12] 102 % of control | [15] 96 % of control

Clc1nccnc1C(Cl)(Cl)Cl
inactive: dose: 50.0 mg/kg/injection, schedule: Q01DX009 (ip), vehicle: other 92 % of control | dose: 100.0 mg/kg/injection, schedule: Q01DX009 (ip), vehicle: other 95 % of control

C[n+]1ccc2cc(N)c3c4ccccc4sc3c2c1
inactive: dose: 1.56 mg/kg/injection, schedule: Q01DX009 (ip), vehicle: saline with Tween-80 110 % of control | dose: 3.12 mg/kg/injection, schedule: Q01DX009 (ip), vehicle: saline with Tween-80 100 % of control | dose: 6.25 mg/kg/injection, schedule: Q01DX009 (ip), vehicle: saline with Tween-80 105 % of control | dose: 12.5 mg/kg/injection, schedule: Q04DX003 (ip), vehicle: saline with Tween-80 105 % of control | dose: 25.0 mg/kg/injection, schedule: Q04DX003 (ip), vehicle: saline with Tween-80 105 % of control | dose: 50.0 mg/kg/injection, schedule: Q04DX003 (ip), vehicle: saline with Tween-80 115 % of control

C=C(Br)CNC1CCC(CCCC)CC1 (centres undefined)
inactive: dose: 50.0 mg/kg/injection, schedule: Q04DX003 (ip), vehicle: Klucel (hydroxypropylcellulose) (HPC) 106 % of control | dose: 100.0 mg/kg/injection, schedule: Q01DX001 (ip), vehicle: Klucel (hydroxypropylcellulose) (HPC) 98 % of control | [4] 102 % of control | dose: 200.0 mg/kg/injection, schedule: Q01DX001 (ip), vehicle: Klucel (hydroxypropylcellulose) (HPC) 98 % of control | [6] 93 % of control | dose: 400.0 mg/kg/injection, schedule: Q01DX001 (ip), vehicle: Klucel (hydroxypropylcellulose) (HPC) 98 % of control
